Laboratory results as given in ChEMBL document CHEMBL6096697, “Structure-Guided Discovery of Novel N4-(Substituted Thiazol-2-yl)-N2-(4-Substituted phenyl)pyrimidine-2,4-Diamines as Potent CDK2 and CDK9 Dual Inhibitors with High Oral Bioavailability” (J Med Chem, 2025).
The source made the active and inactive calls. The rule behind the calls is not given here.

What was measured:
[1] = Half life in Sprague-Dawley rat at 2 mg/kg, iv measured for 36 hrs by MRM analysis; type: ADME, organism-based; conditions: in vivo
HeLa [2] = assay: Induction of cell cycle arrest at G2/M phase in human HeLa cells assessed as decrease in p-Cdc2 level incubated for 48 hrs by Western blot analysis; type: functional, cell-based; conditions: dose <= 3.6 µM
HeLa [3] = assay: Induction of cell cycle arrest in human HeLa cells assessed as accumulation at G2/M phase at 3.6 uM incubated for 24 hrs by PI staining based flow cytometry (reference value: 24.6 +/- 1.11 %); type: functional
HeLa [4] = assay: Induction of apoptosis in human HeLa cells assessed as early apoptotic cells at 1.8 uM incubated for 24 hrs by PI staining based flow cytometry (reference value: 0.8 %); type: functional
HeLa [5] = assay: Induction of apoptosis in human HeLa cells assessed as decrease in Bcl-2 level upto 3.6 uM incubated for 24 hrs by Western blot analysis; type: functional, cell-based
HCT-116 [6] = assay: Induction of apoptosis in human HCT-116 cells assessed as necrotic cells at 0.8 uM incubated for 24 hrs by PI staining based flow cytometry (reference value: 18.9 %); type: functional
[7] = Selectivity index, ratio of IC50 for CDK1/cyclin B (unknown origin) using […] to IC50 for CDK2/cyclin A (unknown origin) using […]
HeLa [8] = assay: Induction of cell cycle arrest in human HeLa cells assessed as accumulation at sub-G1 phase at 3.6 uM incubated for 24 hrs by PI staining based flow cytometry (reference value: 1.89 +/- 0.56 %); type: functional
HCT-116 [9] = assay: Induction of cell cycle arrest in human HCT-116 cells assessed as accumulation at G2/M phase at 0.2 uM incubated for 24 hrs by PI staining based flow cytometry (reference value: 20.6 +/- 3.38 %); type: functional
HCT-116 [10] = assay: Induction of apoptosis in human HCT-116 cells assessed as necrotic cells at 0.4 uM incubated for 24 hrs by PI staining based flow cytometry (reference value: 18.9 %); type: functional
HCT-116 [11] = assay: Induction of cell cycle arrest in human HCT-116 cells assessed as accumulation at G1/G0 phase at 0.8 uM incubated for 24 hrs by PI staining based flow cytometry (reference value: 58.29 +/- 2.01 %); type: functional
HCT-116 [12] = assay: Induction of cell cycle arrest in human HCT-116 cells assessed as accumulation at G1/G0 phase at 0.2 uM incubated for 24 hrs by PI staining based flow cytometry (reference value: 58.29 +/- 2.01 %); type: functional
HCT-116 [13] = assay: Induction of apoptosis in human HCT-116 cells assessed as early apoptotic cells at 0.2 uM incubated for 24 hrs by PI staining based flow cytometry (reference value: 0.19 %); type: functional
HeLa [14] = assay: Induction of apoptosis in human HeLa cells assessed as increase in p53 level upto 3.6 uM incubated for 24 hrs by Western blot analysis; type: functional, cell-based
HCT-116 [15] = assay: Induction of cell cycle arrest in human HCT-116 cells assessed as accumulation at S phase at 0.4 uM incubated for 24 hrs by PI staining based flow cytometry (reference value: 20.82 +/- 1.24 %); type: functional
[16] = Tmax in Sprague-Dawley rat at 10 mg/kg, po measured for 36 hrs by MRM analysis; type: ADME, organism-based; conditions: in vivo
HCT-116 [17] = assay: Induction of cell cycle arrest in human HCT-116 cells assessed as accumulation at G2/M phase at 0.8 uM incubated for 24 hrs by PI staining based flow cytometry (reference value: 20.6 +/- 3.38 %); type: functional
HCT-116 [18] = assay: Induction of apoptosis in human HCT-116 cells assessed as viable cells at 0.8 uM incubated for 24 hrs by PI staining based flow cytometry (reference value: 79.4 %); type: functional; conditions: read-out: Activity
HCT-116 [19] = assay: Antitumor activity against human HCT-116 cells xenografted in Balb/c-nu nude mouse at 35 mg/kg/day, po treated for 7 days consecutively relative to control; type: functional; conditions: HCT-116, 168 h, time 7 day, read-out: TGI
HeLa [20] = assay: Induction of cell cycle arrest in human HeLa cells assessed as accumulation at G1/G0 phase at 1.8 uM incubated for 24 hrs by PI staining based flow cytometry (reference value: 57.63 +/- 1.7 %); type: functional
HCT-116 [21] = assay: Induction of cell cycle arrest in human HCT-116 cells assessed as accumulation at G1/G0 phase at 0.4 uM incubated for 24 hrs by PI staining based flow cytometry (reference value: 58.29 +/- 2.01 %); type: functional
HeLa [22] = assay: Induction of cell cycle arrest in human HeLa cells assessed as accumulation at sub-G1 phase at 1.8 uM incubated for 24 hrs by PI staining based flow cytometry (reference value: 1.89 +/- 0.56 %); type: functional
[23] = target: Cyclin-dependent kinase 4/cyclin D1 (Homo sapiens, UniProt P11802); assay: Inhibition of CDK4/cyclin D (unknown origin) using […] incubated for 40 mins in presence of ATP by Kinase-Glo assay; type: protein-complex assay
[24] = target: Cyclin-dependent kinase 2/cyclin A (Homo sapiens, UniProt P24941); assay: Inhibition of CDK2/cyclin A (unknown origin) using […] incubated for 40 mins in presence of ATP by Kinase-Glo assay; type: protein-complex assay
HeLa [25] = assay: Induction of apoptosis in human HeLa cells assessed as necrotic cells at 3.6 uM incubated for 24 hrs by PI staining based flow cytometry (reference value: 25.5 %); type: functional
HeLa [26] = assay: Antiproliferative activity against human HeLa cells assessed as cell growth inhibition incubated for 48 hrs by MTT assay; type: functional, cell-based
[27] = Cmax in Sprague-Dawley rat at 2 mg/kg, iv measured for 36 hrs by MRM analysis; type: ADME, organism-based; conditions: in vivo
HCT-116 [28] = assay: Induction of cell cycle arrest at G2/M phase in human HCT-116 cells assessed as decrease in p-Cdc2 level incubated for 48 hrs by Western blot analysis; type: functional, cell-based; conditions: dose <= 0.8 µM
HCT-116 [29] = assay: Induction of apoptosis in human HCT-116 cells assessed as increase in p53 level upto 0.8 uM incubated for 24 hrs by Western blot analysis; type: functional, cell-based
HCT-116 [30] = assay: Induction of apoptosis in human HCT-116 cells assessed as late apoptotic cells at 0.2 uM incubated for 24 hrs by PI staining based flow cytometry (reference value: 1.11 %); type: functional
[31] = Toxicity in Balb/c-nu nude mouse xenografted with human HCT-116 cells assessed as toxicity in liver at 35 to 70 mg/kg/day, po treated for 30 days by H and E staining based analysis; type: organism-based; conditions: in vivo, 720 h, dose 35-70 mg/kg/day, time 30 day
[32] = Inhibition of CDK6/cyclin D (unknown origin) using […] incubated for 40 mins in presence of ATP by Kinase-Glo assay; parameters: species or system Homo sapiens
A2780 = assay: Antiproliferative activity against human A2780 cells assessed as cell growth inhibition incubated for 48 hrs by MTT assay; type: functional, cell-based; conditions: A2780, 48 h
HCT-116 [33] = assay: Induction of cell cycle arrest at G2/M phase in human HCT-116 cells assessed as decrease in p-Cdc2 level at 0.4 uM by Western blot analysis; type: functional, cell-based; conditions: time <= 48.0 hrs
[34] = AUC (0 to t) in Sprague-Dawley rat at 10 mg/kg, po measured for 36 hrs by MRM analysis; type: ADME, organism-based; conditions: in vivo

Sequence of Cyclin-dependent kinase 4/cyclin D1 (P11802 whole entry): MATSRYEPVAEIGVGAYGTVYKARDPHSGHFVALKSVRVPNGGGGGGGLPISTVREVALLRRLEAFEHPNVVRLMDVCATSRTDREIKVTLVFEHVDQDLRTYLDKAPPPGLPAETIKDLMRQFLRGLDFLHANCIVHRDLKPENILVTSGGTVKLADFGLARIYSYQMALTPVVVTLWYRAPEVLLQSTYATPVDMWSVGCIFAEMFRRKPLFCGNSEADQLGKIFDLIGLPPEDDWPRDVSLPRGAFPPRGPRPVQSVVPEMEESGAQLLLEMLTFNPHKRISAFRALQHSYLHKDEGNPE
Sequence of Cyclin-dependent kinase 4/cyclin D1 (P24385 whole entry, further chain): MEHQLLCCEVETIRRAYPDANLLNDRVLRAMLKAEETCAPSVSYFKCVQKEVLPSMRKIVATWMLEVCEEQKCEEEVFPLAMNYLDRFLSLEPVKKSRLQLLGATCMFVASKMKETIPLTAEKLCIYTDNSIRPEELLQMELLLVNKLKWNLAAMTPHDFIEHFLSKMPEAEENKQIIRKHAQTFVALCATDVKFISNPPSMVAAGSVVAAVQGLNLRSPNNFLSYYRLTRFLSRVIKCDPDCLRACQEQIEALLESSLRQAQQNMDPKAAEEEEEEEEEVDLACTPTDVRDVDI

Structure (SMILES): Cc1cnc(Nc2ccc(S(N)(=O)=O)cc2)nc1Nc1nccs1
- half-life [1]: 4.5 h
- Activity (HeLa [2]): Dose-dependent-effect
- Activity (HeLa [3]): 44.19%
- Activity (HeLa [4]): 62.6%
- Activity (HeLa [5]): Active
- Activity (HCT-116 [6]): 4%
- Ratio IC50 [7]: 13
- Activity (HeLa [8]): 19.5%
- Activity (HCT-116 [9]): 24.4%
- Activity (HCT-116 [10]): 4.8%
- Activity (HCT-116 [11]): 43.88%
- Activity (HCT-116 [12]): 51.83%
- Activity (HCT-116 [13]): 2%
- Activity (HeLa [14]): Active
- Activity (HCT-116 [15]): 22.25%
- Tmax [16]: 0.5 h
- Activity (HCT-116 [17]): 37.16%
- viability at 0.8 µM (HCT-116 [18]): 52.8%
- inhibition in vivo at 35 mg/kg/day (HCT-116 [19]): 39%
- Activity (HeLa [20]): 50.55%
- Activity (HCT-116 [21]): 44.9%
- Activity (HeLa [22]): 1.28%
- IC50 [23]: 942 nM
- IC50 [24]: 4 nM
- Activity (HeLa [25]): 0.72%
- IC50 (HeLa [26]): 1840 nM
- Cmax [27]: 29.1 ng/mL
- Activity (HCT-116 [28]): Dose-dependent-effect
- Activity (HCT-116 [29]): Active
- Activity (HCT-116 [30]): 31.2%
- Activity [31]: Non-toxic
- IC50 [32]: 3250 nM
- IC50 (A2780): 22200 nM
- Activity (HCT-116 [33]): Time-dependent-effect
- AUC(0-t) at 36 h [34]: 143 ng·h/mL
